Values joined by “and” are separate entries in the source; they are usually repeats but may differ in a detail not shown here. Equal entries are not always repeated.
What was measured:
[1] = test system: D. immitis (Michigan strain); assay: Efficacy of compounds in the D. immitis immunosuppressed rat model (third study, subcutaneous dosing); type: in vivo
[2] = test system: D. immitis (Michigan susceptible strain); assay: Rat (SQ) heartworm model, compiled dose correlation data; type: in vivo
[3] = test system: D. immitis (UGA susceptible strain); assay: Dog (oral) heartworm model, compiled dose correlation data; type: in vivo
D. immitis JYD-34 strain = assay: Oral moxidectin in immunosuppressed rats infected with JYD-34 strain; type: in vivo, rat; conditions: for Mean worm counts: geometric mean
[4] = test system: D. immitis ZoeMI-01 (ZM1) strain; assay: Oral moxidectin in immunosuppressed rats infected with ZoeMI-01 strain; type: in vivo, rat; conditions: for Mean worm counts: geometric mean
[5] = rat, in vivo
[6] = rat, SC 1.00 mg/kg day 30 post-inoculation, necropsy day 112-114
[7] = rat, SC 5.00 mg/kg day 30 post-inoculation, necropsy day 112-114
[8] = SQ 1 μg/kg, dosed month 1 post-inoculation
[9] = oral 3 μg/kg day 28, necropsy day 120
[10] = oral 3 μg/kg days 28, 56, 84, necropsy day 120
[11] = oral 12 μg/kg day 28, necropsy day 120
[12] = oral 24 μg/kg day 28, necropsy day 120
[13] = n = 4, oral 3 μg/kg day 28, necropsy day 120
[14] = n = 4, oral 3 μg/kg days 28, 56, 84, necropsy day 120
[15] = n = 4, oral 24 μg/kg day 28, necropsy day 120
[16] = rat, SC 0.001 mg/kg day 30 post-inoculation, necropsy day 112-114
[17] = rat, SC 0.003 mg/kg day 30 post-inoculation, necropsy day 112-114

CC(C)C[C@H]1C(=O)O[C@H](Cc2ccc(N3CCOCC3)cc2)C(=O)N(C)[C@@H](CC(C)C)C(=O)O[C@H](C)C(=O)N(C)[C@@H](CC(C)C)C(=O)O[C@H](Cc2ccc(N3CCOCC3)cc2)C(=O)N(C)[C@@H](CC(C)C)C(=O)O[C@H](C)C(=O)N1C [EMO, emodepside]
Mean worm count (range) ([1]; arithmetic mean, rat, SC 1.00 mg/kg day 30 post-inoculation, necropsy day 112-114): 1.8
Mean worm count (range) ([1]; arithmetic mean, rat, SC 5.00 mg/kg day 30 post-inoculation, necropsy day 112-114): 0
prevention of heartworm ([1]; rat model, dose not stated): 100%
# rats with infection (n = 6) [1, 6]: 3
% Efficacy [1, 6]: 75.6%
# rats with infection (n = 6) [1, 7]: 0
% Efficacy [1, 7]: 100%
# of Ag+ ([1]; rat, in vivo, sc, 1 mg/kg): 1
# of Ag+ ([1]; rat, in vivo, sc, 5 mg/kg): 1
% Efficacy [2, 8]: 76%
% Efficacy ([2]; SQ 5 μg/kg, dosed month 1 post-inoculation): 100%
% Efficacy ([3]; oral 1 μg/kg, dosed month 1 post-inoculation): 58%
% Efficacy ([3]; oral 3 μg/kg, dosed month 1 post-inoculation): 88%
% Efficacy ([3]; oral 5 μg/kg, dosed month 1 post-inoculation): 97%
% Efficacy ([3]; oral 10 μg/kg, dosed month 1 post-inoculation): 97%

CC[C@H](C)[C@H]1O[C@]2(CC[C@@H]1C)C[C@@H]1C[C@@H](C/C=C(\C)[C@@H](O[C@H]3C[C@H](OC)[C@@H](O[C@H]4C[C@H](OC)[C@@H](O)[C@H](C)O4)[C@H](C)O3)[C@@H](C)/C=C/C=C3\CO[C@@H]4[C@H](O)C(C)=C[C@@H](C(=O)O1)[C@]34O)O2 [IVM, ivermectin]
efficacy ([1]; rat, in vivo): 96.5%
# of Ag+ ([1]; rat, in vivo, sc, 0.001 mg/kg): 2
# rats with infection (n = 6) ([1]; rat, in vivo, sc, 0.001 mg/kg): 5
% Efficacy ([1]; rat, in vivo, sc, 0.001 mg/kg): 89.3%
Mean worm count (range) ([1]; rat, in vivo, sc, 0.001 mg/kg): 0.8
# of Ag+ ([1]; rat, in vivo, sc, 0.003 mg/kg): 2
# rats with infection (n = 6) ([1]; rat, in vivo, sc, 0.003 mg/kg): 1
% Efficacy ([1]; rat, in vivo, sc, 0.003 mg/kg): 96.5%
Mean worm count (range) ([1]; rat, in vivo, sc, 0.003 mg/kg): 0.3
% Efficacy ([2]; in vivo): 89% and 97-100% and 100%
% Efficacy ([3]; in vivo, po): 53% and 83-97% and 98% and 100% and 64%

CO/N=C1\C[C@]2(C[C@@H]3C[C@@H](C/C=C(\C)C[C@@H](C)/C=C/C=C4\CO[C@@H]5[C@H](O)C(C)=C[C@@H](C(=O)O3)[C@]45O)O2)O[C@H](/C(C)=C/C(C)C)[C@H]1C [MOX, moxidectin]
Mean worm counts (D. immitis JYD-34 strain; [9]): 6.0
Mean worm counts (D. immitis JYD-34 strain; [10]): 2.4
Mean worm counts (D. immitis JYD-34 strain; [11]): 2.8
Mean worm counts (D. immitis JYD-34 strain; [12]): 0.5
Number of rats infected (D. immitis JYD-34 strain; n = 4, one rat died pre-necropsy, oral 12 μg/kg day 28, necropsy day 120): *3
Number of rats infected (D. immitis JYD-34 strain; [13]): 4
Number of rats infected (D. immitis JYD-34 strain; [14]): 4
Number of rats infected (D. immitis JYD-34 strain; [15]): 1
% Efficacy (D. immitis JYD-34 strain; [9]): 0%
% Efficacy (D. immitis JYD-34 strain; [10]): 38%
% Efficacy (D. immitis JYD-34 strain; [11]): 28%
% Efficacy (D. immitis JYD-34 strain; [12]): 87%
Mean worm count (range) ([1]; arithmetic mean, rat, SC 0.001 mg/kg day 30 post-inoculation, necropsy day 112-114): 0.67
Mean worm count (range) ([1]; arithmetic mean, rat, SC 0.003 mg/kg day 30 post-inoculation, necropsy day 112-114): 0
efficacy ([1]; rat model, at their use-dose): 100%
# rats with infection (n = 6) [1, 16]: 4
% Efficacy [1, 16]: 91.7%
# rats with infection (n = 6) [1, 17]: 0
% Efficacy [1, 17]: 100%
# of Ag+ ([1]; rat, in vivo, sc, 0.001 mg/kg): 1
# of Ag+ ([1]; rat, in vivo, sc, 0.003 mg/kg): 0
% Efficacy [2, 8]: 92%
% Efficacy ([2]; SQ 3 μg/kg, dosed month 1 post-inoculation): 100%
Mean worm counts [4, 9]: 1.1
Mean worm counts [4, 10]: 0
Mean worm counts [4, 11]: 0
Mean worm counts [4, 12]: 0
Number of rats infected [4, 13]: 3
Number of rats infected [4, 14]: 0
Number of rats infected ([4]; n = 4, oral 12 μg/kg day 28, necropsy day 120): 0
Number of rats infected [4, 15]: 0
% Efficacy [4, 9]: 81%
% Efficacy [4, 10]: 100%
% Efficacy [4, 11]: 100%
% Efficacy [4, 12]: 100%
% Efficacy ([3]; oral 0.5 μg/kg, dosed month 2 post-inoculation): 100%
% Efficacy ([3]; oral 0.625 μg/kg, dosed month 2 post-inoculation): 100%
% Efficacy ([3]; oral 1.25 μg/kg, dosed months 1, 2 post-inoculation): 100%

CC(=O)OCC(=O)[C@@]1(O)CC[C@H]2[C@@H]3CCC4=CC(=O)CC[C@]4(C)[C@H]3[C@@H](O)C[C@@]21C [hydrocortisone, hydrocortisone acetate]
mortality [5]: increased incidence of mortality
